Patent US20250163104A1, “MACROCYCLIC IMMUNOMODULATORS” (priority 2021, published 2025)
Where a SMILES comes first, the peptide text is derived from it. Bridges are numbered along the chain shown (N, C = ends). [ ]: non-standard residue; d: D form. The star is where a group is joined. ξ: configuration not given here. Phe(4-COOH) = N[C@@H](Cc1ccc(C(=O)O)cc1)C(=O)O; Bip = N[C@@H](Cc1ccc(-c2ccccc2)cc1)C(=O)O; Phe(3-Me) = Cc1cccc(C[C@H](N)C(=O)O)c1; Phe(2-F) = N[C@@H](Cc1ccccc1F)C(=O)O; Val(3-OH) = CC(C)(O)[C@H](N)C(=O)O; aIle = CC[C@@H](C)[C@H](N)C(=O)O; 4Pal = N[C@@H](Cc1ccncc1)C(=O)O; Cha = N[C@@H](CC1CCCCC1)C(=O)O; Cit = NC(=O)NCCC[C@H](N)C(=O)O; dCha = N[C@H](CC1CCCCC1)C(=O)O; Thr(3ξ) = CC(O)[C@H](N)C(=O)O; dNle = CCCC[C@@H](N)C(=O)O; Carboxymethyl = O=C(O)C*; Orn = NCCC[C@H](N)C(=O)O; Pra = C#CC[C@H](N)C(=O)O; Dab = NCC[C@H](N)C(=O)O; Dap = NC[C@H](N)C(=O)O

molecular target: T1, human PD-1 / PD-L1-Ig binding on Jurkat cell line over-expressing human PD-1 (Jurkat-PD-1) (Homo sapiens, UniProt Q15116); assay: Jurkat-PD-1 Cell Binding High-Content Screening Assay (CBA); assay type: cell-based; details: Jurkat HPD1_PDL1 IC50, Jurkat-PD-1 cells, PE-labeled PD-L1-Ig 20 nM final
T1 construct: expressed in transfected cells; host or cells: Jurkat
Outline: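 Compounds were preincubated with Jurkat-hPD-1 cells in DMEM plus 10% fetal calf serum for 2 h at 37° C. Phycoerythrin-labeled PD-L1-Ig (20 nM final) was then added for 1 hour. Cells were fixed in 4% paraformaldehyde with Hoechst 33342, and bound fluorescence was quantified by high-content imaging.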

T1 sequence (Q15116 25-288): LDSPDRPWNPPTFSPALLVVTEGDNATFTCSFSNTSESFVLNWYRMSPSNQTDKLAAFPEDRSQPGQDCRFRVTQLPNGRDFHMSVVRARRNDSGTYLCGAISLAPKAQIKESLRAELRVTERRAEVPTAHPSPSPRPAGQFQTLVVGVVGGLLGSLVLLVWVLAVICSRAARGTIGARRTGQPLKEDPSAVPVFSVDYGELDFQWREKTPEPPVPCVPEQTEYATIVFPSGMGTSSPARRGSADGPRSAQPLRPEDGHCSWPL

Structure (SMILES)	IC50
CC(C)C[C@H]1NC(=O)[C@H](CCCN)NC(=O)[C@H](CCCNC(N)=O)NC(=O)[C@H](Cc2ccc(-c3ccccc3)cc2)NC(=O)[C@H](C(C)C)NC(=O)[C@H](Cc2c[nH]c3ccccc23)NC(=O)[C@H](CC(=O)O)NC(=O)[C@H](Cc2ccc(OCC(=O)O)cc2)NC(=O)[C@H](Cc2ccncc2)NC(=O)CSC[C@@H](C(=O)N[C@@H](C)C(N)=O)NC(=O)[C@H]([C@@H](C)O)NC(=O)[C@H](C(C)C)NC(=O)[C@H](CC2CCCCC2)NC(=O)[C@H](Cc2c[nH]cn2)NC1=O [Compound 1610]	21.5 nM

same assay, conditions: Jurkat-PD-1 cells, PE-labeled PD-L1-Ig 20 nM final; read-out: Jurkat HPD1_PDL1 IC50

Structure (SMILES)	IC50
CC(C)[C@@H]1NC(=O)[C@H](Cc2c[nH]c3ccccc23)NC(=O)[C@H](CC(=O)O)NC(=O)[C@H](Cc2ccc(OCC(=O)O)cc2)NC(=O)[C@H](CN)NC(=O)CSC[C@@H](C(=O)N[C@@H](C)C(N)=O)NC(=O)[C@H]([C@@H](C)O)NC(=O)[C@H](C(C)C)NC(=O)[C@H](CC2CCCCC2)NC(=O)[C@H](CCN)NC(=O)[C@@H](Cc2ccc(O)cc2)NC(=O)[C@H](CCCN)NC(=O)[C@H](CCC(=O)O)NC(=O)[C@H](Cc2ccc(-c3ccccc3)cc2)NC1=O [Compound 1448] ({CH2CO}-[Dap]Y(Carboxymethyl)DWV[Bip]E[Orn][dY][Dab][Cha]VTCA-NH2; thioether N-14)	26.9 nM
CC(C)C[C@H]1NC(=O)[C@H](CCCN)NC(=O)[C@H](CCCNC(N)=O)NC(=O)[C@H](Cc2ccc(-c3ccccc3)cc2)NC(=O)[C@H](C(C)C)NC(=O)[C@H](Cc2c[nH]c3ccccc23)NC(=O)[C@H](CC(=O)O)NC(=O)[C@H](Cc2ccc(OCC(=O)O)cc2)NC(=O)[C@H](CN)NC(=O)CSC[C@@H](C(=O)N[C@@H](C)C(N)=O)NC(=O)[C@H]([C@@H](C)O)NC(=O)[C@H](C(C)C)NC(=O)[C@H](Cc2ccccc2)NC(=O)[C@H](CCN)NC1=O [Compound 1344] ({CH2CO}-[Dap]Y(Carboxymethyl)DWV[Bip][Cit][Orn][dL][Dab]FVTCA-NH2; thioether N-14)	31 nM
CC[C@H](C)[C@@H]1NC(=O)[C@H](Cc2ccc(-c3ccccc3)cc2)NC(=O)[C@H](C(C)C)NC(=O)[C@H](Cc2c[nH]c3ccccc23)NC(=O)[C@H](CC(=O)O)NC(=O)[C@H](Cc2ccc(OCC(=O)O)cc2)NC(=O)[C@H](Cc2ccncc2)NC(=O)CSC[C@@H](C(=O)N[C@@H](C)C(N)=O)NC(=O)[C@H]([C@@H](C)O)NC(=O)[C@H](C(C)C)NC(=O)[C@H](CC2CCCCC2)NC(=O)[C@H](Cc2cnc[nH]2)NC(=O)[C@@H](CC(C)C)NC(=O)[C@H](CCCN)NC1=O [Compound 1608]	32.2 nM
Cc1cccc(C[C@@H]2NC(=O)[C@H](CC(=O)O)NC(=O)[C@H](Cc3ccc(C(=O)O)cc3)NC(=O)[C@H](Cc3ccc(OCC(=O)O)cc3)NC(=O)CSC[C@@H](C(=O)N[C@@H](C)C(N)=O)NC(=O)[C@H]([C@@H](C)O)NC(=O)[C@H](C(C)C)NC(=O)[C@H](CC(C)C)NC(=O)[C@H](CCN)NC(=O)[C@@H](CC(C)C)NC(=O)[C@H](CCCN)NC(=O)[C@H](C(C)C)NC(=O)[C@H](Cc3ccc(-c4ccccc4)cc3)NC(=O)[C@H](C(C)C)NC2=O)c1 [Compound 1221] ({CH2CO}-Y(Carboxymethyl)[Phe(4-COOH)]D[Phe(3-Me)]V[Bip]V[Orn][dL][Dab]LVTCA-NH2; thioether N-14)	3 nM
CC(C)C[C@H]1NC(=O)[C@H](CCCN)NC(=O)[C@H](CCCNC(N)=O)NC(=O)[C@H](Cc2ccc(-c3ccccc3)cc2)NC(=O)[C@H](C(C)C)NC(=O)[C@H](Cc2c[nH]c3ccccc23)NC(=O)[C@H](CC(=O)O)NC(=O)[C@H](Cc2ccc(OCC(=O)O)cc2)NC(=O)[C@H](CN)NC(=O)CSC[C@@H](C(=O)N[C@@H](C)C(N)=O)NC(=O)[C@H]([C@@H](C)O)NC(=O)[C@H](C(C)C)NC(=O)[C@H](Cc2ccncc2)NC(=O)[C@H](CCN)NC1=O [Compound 1345] ({CH2CO}-[Dap]Y(Carboxymethyl)DWV[Bip][Cit][Orn][dL][Dab][4Pal]VTCA-NH2; thioether N-14)	236 nM
CC(C)C[C@@H]1NC(=O)[C@H](Cc2c[nH]c3ccccc23)NC(=O)[C@H](CC(=O)O)NC(=O)[C@H](Cc2ccncc2)NC(=O)[C@H](Cc2ccc(OCC(=O)O)cc2)NC(=O)CSC[C@@H](C(=O)NCC(N)=O)NC(=O)[C@H](CO)NC(=O)[C@H](C(C)C)NC(=O)[C@H](CC(C)C)NC(=O)[C@H](CC(N)=O)NC(=O)[C@@H](CC(C)C)NC(=O)[C@H](CCCN)NC(=O)[C@H](C(C)C)NC(=O)[C@H](Cc2ccc(-c3ccccc3)cc2)NC1=O [Compound 1286] ({CH2CO}-Y(Carboxymethyl)[4Pal]DWL[Bip]V[Orn][dL]NLVSCG-NH2; thioether N-14)	50.3 nM

Now from value to compound:

IC50	Structure (SMILES)
35 nM	CC[C@@H](C)[C@@H]1NC(=O)[C@H](Cc2ccc(-c3ccccc3)cc2)NC(=O)[C@H](C(C)C)NC(=O)[C@H](Cc2c[nH]c3ccccc23)NC(=O)[C@H](CC(=O)O)NC(=O)[C@H](Cc2ccc(OCC(=O)O)cc2)NC(=O)[C@H](Cc2ccc(OCC(=O)O)cc2)NC(=O)CSC[C@@H](C(=O)N[C@@H](C)C(N)=O)NC(=O)[C@H]([C@@H](C)O)NC(=O)[C@H](C(C)C)NC(=O)[C@H](CC2CCCCC2)NC(=O)[C@H](CCN)NC(=O)[C@@H](CC2CCCCC2)NC(=O)[C@H](CCCN)NC1=O [Compound 1625] ({CH2CO}-Y(Carboxymethyl)Y(Carboxymethyl)DWV[Bip][aIle][Orn][dCha][Dab][Cha]VTCA-NH2; thioether N-14)
12.8 nM	CCCC[C@H]1NC(=O)[C@H](CCCN)NC(=O)[C@H]([C@@H](C)CC)NC(=O)[C@H](Cc2ccc(-c3ccccc3)cc2)NC(=O)[C@H](C(C)C)NC(=O)[C@H](Cc2c[nH]c3ccccc23)NC(=O)[C@H](CC(=O)O)NC(=O)[C@H](Cc2ccncc2)NC(=O)[C@H](CN)NC(=O)CSC[C@@H](C(=O)N[C@@H](C)C(N)=O)NC(=O)[C@H]([C@@H](C)O)NC(=O)[C@H](C(C)C)NC(=O)[C@H](CC2CCCCC2)NC(=O)[C@H](CCN)NC1=O [Compound 1711] ({CH2CO}-[Dap][4Pal]DWV[Bip]I[Orn][dNle][Dab][Cha]VTCA-NH2; thioether N-14)
34.4 nM	CC(C)C[C@H]1NC(=O)[C@H](CCCN)NC(=O)[C@H](CCC(=O)O)NC(=O)[C@H](Cc2ccc(-c3ccccc3)cc2)NC(=O)[C@H](C(C)C)NC(=O)[C@H](Cc2ccccc2F)NC(=O)[C@H](CC(=O)O)NC(=O)[C@H](Cc2ccncc2)NC(=O)[C@H](CC(N)=O)NC(=O)CSC[C@@H](C(=O)N[C@@H](C)C(N)=O)NC(=O)[C@H]([C@@H](C)O)NC(=O)[C@H](C(C)C)NC(=O)[C@H](CC2CCCCC2)NC(=O)[C@H](CCN)NC1=O [Compound 2207] ({CH2CO}-N[4Pal]D[Phe(2-F)]V[Bip]E[Orn][dL][Dab][Cha]VTCA-NH2; thioether N-14)
368 nM	CC(C)C[C@H]1NC(=O)[C@H](CCCN)NC(=O)[C@H](CCC(=O)O)NC(=O)[C@H](Cc2ccc(-c3ccccc3)cc2)NC(=O)[C@H](C(C)C)NC(=O)[C@H](Cc2c[nH]c3ccccc23)NC(=O)[C@H](CC(=O)O)NC(=O)[C@H](Cc2ccc(C(=O)O)cc2)NC(=O)[C@H](Cc2ccc(OCC(=O)O)cc2)NC(=O)CSC[C@@H](C(=O)N[C@@H](C)C(N)=O)NC(=O)[C@H]([C@@H](C)O)NC(=O)[C@H](C(C)C)NC(=O)[C@H](Cc2ccc(O)cc2)NC(=O)[C@H](CCN)NC1=O [Compound 1687] ({CH2CO}-Y(Carboxymethyl)[Phe(4-COOH)]DWV[Bip]E[Orn][dL][Dab]YVTCA-NH2; thioether N-14)
32.1 nM	CCC(C)[C@@H]1NC(=O)[C@H](Cc2ccc(-c3ccccc3)cc2)NC(=O)[C@H](C(C)C)NC(=O)[C@H](Cc2c[nH]c3ccccc23)NC(=O)[C@H](CC(=O)O)NC(=O)[C@H](Cc2ccc(-c3cccc(C(=O)O)c3)cc2)NC(=O)[C@H](Cc2ccncc2)NC(=O)CSC[C@@H](C(=O)N[C@@H](C)C(N)=O)NC(=O)[C@H]([C@@H](C)O)NC(=O)[C@H](C(C)C)NC(=O)[C@H](CC2CCCCC2)NC(=O)[C@H](CCN)NC(=O)[C@@H](CC(C)C)NC(=O)[C@H](CCCN)NC1=O (stereo partly drawn) [Compound 2221]
8.2 nM	CC(C)C[C@H]1NC(=O)[C@H](CCCN)NC(=O)[C@H](CCC(=O)O)NC(=O)[C@H](Cc2ccc(-c3ccccc3)cc2)NC(=O)[C@H](C(C)C)NC(=O)[C@H](Cc2c[nH]c3ccccc23)NC(=O)[C@H](CC(=O)O)NC(=O)[C@H](Cc2ccncc2)NC(=O)[C@H](Cc2ccncc2)NC(=O)CSC[C@@H](C(=O)N[C@@H](C)C(N)=O)NC(=O)[C@H]([C@@H](C)O)NC(=O)[C@H](C(C)C)NC(=O)[C@H](CC2CCCCC2)NC(=O)[C@H](CCN)NC1=O [Compound 2197] ({CH2CO}-[4Pal][4Pal]DWV[Bip]E[Orn][dL][Dab][Cha]VTCA-NH2; thioether N-14)
4.4 nM	C#CC[C@H](NC(=O)[C@H](CCN)NC(=O)[C@@H]1CSCC(=O)N[C@@H](CCN)C(=O)N[C@@H](Cc2ccc(C(=O)O)cc2)C(=O)N[C@@H](CC(=O)O)C(=O)N[C@@H](Cc2cccc(C)c2)C(=O)N[C@@H](Cc2ccc(C(=O)O)cc2)C(=O)N[C@@H](Cc2ccc(-c3ccccc3)cc2)C(=O)N[C@@H](Cc2ccc(C(=O)O)cc2)C(=O)N[C@@H](CCCN)C(=O)N[C@H](CC(C)C)C(=O)N[C@@H](CCN)C(=O)N[C@@H](CC2CCCCC2)C(=O)N[C@@H](C(C)(C)O)C(=O)N[C@@H](CO)C(=O)N1)C(N)=O [Compound 2088] ({CH2CO}-[Dab][Phe(4-COOH)]D[Phe(3-Me)][Phe(4-COOH)][Bip][Phe(4-COOH)][Orn][dL][Dab][Cha][Val(3-OH)]SC[Dab][Pra]-NH2; thioether N-14)
18.9 nM	Cc1cccc(C[C@@H]2NC(=O)[C@H](CC(=O)O)NC(=O)[C@H](Cc3ccc(OCC(=O)O)cc3)NC(=O)[C@H](C(C)O)NC(=O)CSC[C@@H](C(N)=O)NC(=O)[C@H](C(C)O)NC(=O)[C@H](C(C)C)NC(=O)[C@H](CC3CCCCC3)NC(=O)[C@H](CCN)NC(=O)[C@@H](CC(C)C)NC(=O)[C@H](CCCN)NC(=O)[C@H](C(C)C)NC(=O)[C@H](Cc3ccc(-c4ccccc4)cc3)NC(=O)[C@H](C(C)C)NC2=O)c1 (stereo partly drawn) [Compound 2605] ({CH2CO}-[Thr(3ξ)]Y(Carboxymethyl)D[Phe(3-Me)]V[Bip]V[Orn][dL][Dab][Cha]V[Thr(3ξ)]C-NH2; thioether N-14)
